pEC50: −log10 of the molar value.
Experiments:
[1] = tested on: mHTT protein; test: mHTT protein assay (2B7-MW1, Mesoscale Discovery); assay type: cell-based, human; settings: GM04724 (CAG 70/20) Huntington's disease patient lymphoblast cells, 48 hours, 2B7-MW1 MSD; read-out: HTT Potency - Protein EC50 mHTT (average)
In short: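 GM04724 Huntington's patient lymphoblasts (CAG 70/20) were treated for 48 h at 10 μM to 0.6 nM. mHTT was quantified by 2B7-MW1 MSD immunoassay, whose signal depends on polyQ expansion and HTT fragment size. Viability was run on a parallel plate by CellTiter-Glo.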

[2] = tested on: MDR1; test: MDCK-MDR1 permeability assay (BBB penetration potential); assay type: in vitro ADME; settings: dog; for efflux ratio at 120 min, 5 μM: MDCK-MDR1, pH 7.4, MDCK-MDR1: Efflux; for Papp A→B at 120 min, 5 μM: MDCK-MDR1, pH 7.4, MDCK-MDR1: Papp A-B; for Papp B→A at 120 min, 5 μM: MDCK-MDR1, pH 7.4, MDCK-MDR1: Papp B-A
Protocol: (§1) Each determination is performed in duplicate. […] Analytical conditions are outlined below.

[3] = tested on: MDR1-MDCK cell monolayers; test: as above; assay type: in vitro ADME; settings: dog, MDCK-MDR1, 120 min, 5 μM, pH 7.4
Protocol: as §1

Compound | pEC50 [1] | efflux ratio at 120 min, 5 μM [2] | Papp A→B at 120 min, 5 μM [2] | Papp B→A at 120 min, 5 μM [2] | MDCK-MDR1: % Recov A-B [3] | MDCK-MDR1: % Recov B-A [3]
Oc1cc2cccnc2cc1-c1ccc(O[C@@H]2C[C@H]3CCC[C@H](N3)[C@@H]2F)nn1 (single isomer, unassigned) [105-ENT1] | 6.30 to 7.00 | 6 | 8.12 ×10⁻⁶ cm/s | 47.1 ×10⁻⁶ cm/s | 92% | 84%
Cc1ncn(-c2ccc(-c3ccc(O[C@@H]4C[C@H]5CCC[C@H](N5)[C@@H]4F)nn3)c(O)c2)n1 (single isomer, unassigned) [70-ENT1] | 6.30 to 7.00 | 7 | 6.62 ×10⁻⁶ cm/s | 44.6 ×10⁻⁶ cm/s | 93% | 99%
Cc1ncc(-c2ccc(-c3ccc(O[C@H]4C[C@@H]5CCC[C@@H](N5)[C@H]4F)nn3)c(O)c2)o1 (single isomer, unassigned) [93-ENT2] | 7.30 to 7.80 | 4 | 9.43 ×10⁻⁶ cm/s | 41.5 ×10⁻⁶ cm/s | 67% | 88%
Cc1ccc(-c2ccc(-c3ccc(O[C@@H]4C[C@H]5CCC[C@H](N5)[C@@H]4F)nn3)c(O)c2)s1 (single isomer, unassigned) [100-ENT1] | 6.30 to 7.00 | 1 | 0.99 ×10⁻⁶ cm/s | 0.68 ×10⁻⁶ cm/s | 16% | 49%
Oc1cc(-c2nnco2)c(F)cc1-c1ccc(O[C@@H]2C[C@H]3CCC[C@H](N3)[C@@H]2F)nn1 (single isomer, unassigned) [143-ENT2] | 7.00 to 7.29 | 8 | 6.91 ×10⁻⁶ cm/s | 54.8 ×10⁻⁶ cm/s | 81% | 87%
Oc1cc(-n2ccnc2)ccc1-c1ccc(O[C@H]2C[C@@H]3CC(F)(F)[C@H](C2)N3)nn1 (single isomer, unassigned) [51-ENT2] | 5.00 to 6.30 | 2 | 25.8 ×10⁻⁶ cm/s | 46.7 ×10⁻⁶ cm/s | 86% | 90%
Oc1cc2nccnc2cc1-c1ccc(O[C@H]2C[C@@H]3CCC[C@@H](N3)[C@H]2F)nn1 (single isomer, unassigned) [104-ENT2] | 5.00 to 6.30 | 5 | 10.1 ×10⁻⁶ cm/s | 53.6 ×10⁻⁶ cm/s | 93% | 99%
C[C@]12CC[C@](C)(N1)[C@H](F)[C@H](Oc1ccc(-c3ccc(-n4cccn4)cc3O)nn1)C2 (single isomer, unassigned) [153-ENT1] | 7.00 to 7.29 | 5 | 7.44 ×10⁻⁶ cm/s | 34.4 ×10⁻⁶ cm/s | 67% | 76%
Cc1cncc(-c2ccc(-c3ccc(O[C@H]4C[C@@H]5CCC[C@@H](N5)[C@H]4F)nn3)c(O)c2)c1 (single isomer, unassigned) [89-ENT2] | 5.00 to 6.30 | 13 | 2.61 ×10⁻⁶ cm/s | 34 ×10⁻⁶ cm/s | 55% | 70%
Cn1cc(-c2ccc(-c3ccc(O[C@H]4C[C@@H]5CCC[C@@H](N5)[C@H]4F)nn3)c(O)c2)c(F)n1 (single isomer, unassigned) [109-ENT2] | 7.30 to 7.80 | 4 | 6.3 ×10⁻⁶ cm/s | 24.5 ×10⁻⁶ cm/s | 51% | 80%
Oc1cc(-c2ccc3cncn3c2)ccc1-c1ccc(O[C@@H]2C[C@H]3CCC[C@H](N3)[C@@H]2F)nn1 (single isomer, unassigned) [85-ENT1] | 6.30 to 7.00 | 6 | 2.12 ×10⁻⁶ cm/s | 12.1 ×10⁻⁶ cm/s | 33% | 66%
Cn1cc(-c2ccc(-c3ccc(O[C@H]4C[C@@H]5COC[C@@H](N5)[C@H]4F)nn3)c(O)c2)cn1 (single isomer, unassigned) [124-ENT2] | 5.00 to 6.30 | 3 | 16.9 ×10⁻⁶ cm/s | 43.5 ×10⁻⁶ cm/s | 86% | 89%
Oc1cc(-c2ccccn2)ccc1-c1ccc(O[C@H]2C[C@@H]3CCC[C@@H](N3)[C@H]2F)nn1 (single isomer, unassigned) [77-ENT2] | 6.30 to 7.00 | 5 | 6.32 ×10⁻⁶ cm/s | 30.2 ×10⁻⁶ cm/s | 57% | 79%
Cn1cnc(-c2ccc(-c3ccc(O[C@H]4C[C@]5(C)CCC[C@@](C)(N5)[C@H]4F)nn3)c(O)c2)cc1=O (single isomer, unassigned) [139-ENT2] | 7.82 to 11.00 | 15 | 1.97 ×10⁻⁶ cm/s | 28.7 ×10⁻⁶ cm/s | 88% | 87%
O=c1cc(-c2ccc(-c3ccc(O[C@@H]4C[C@H]5CCC[C@H](N5)[C@@H]4F)nn3)c(O)c2)ccn1CF (single isomer, unassigned) [106-ENT1] | 6.30 to 7.00 | 48 | 1.07 ×10⁻⁶ cm/s | 51 ×10⁻⁶ cm/s | 102% | 90%
Oc1cc(-c2ccc3nncn3c2)ccc1-c1ccc(O[C@H]2C[C@@H]3CCC[C@@H](N3)[C@H]2F)nn1 (single isomer, unassigned) [73-ENT2] | 6.30 to 7.00 | 84 | 0.49 ×10⁻⁶ cm/s | 41.3 ×10⁻⁶ cm/s | 90% | 87%
Cc1ncn(-c2ccc(-c3ccc(O[C@H]4C[C@@H]5CCC[C@@H](N5)[C@H]4F)nn3)c(O)c2)n1 (single isomer, unassigned) [70-ENT2] | 6.30 to 7.00 | 5 | 7.47 ×10⁻⁶ cm/s | 40.1 ×10⁻⁶ cm/s | 94% | 105%
Cn1cc(-c2ccc(-c3ccc(O[C@@H]4C[C@H]5COC[C@H](N5)[C@@H]4F)nn3)c(O)c2)cn1 (single isomer, unassigned) [124-ENT1] | 5.00 to 6.30 | 3 | 17.5 ×10⁻⁶ cm/s | 51.5 ×10⁻⁶ cm/s | 82% | 88%
C[C@@]12CCC[C@@](C)(N1)[C@@H](F)[C@@H](Oc1ccc(-c3ccc(C#N)cc3O)nn1)C2 (single isomer, unassigned) [145-ENT2] | 5.00 to 6.30 | 8 | 7.75 ×10⁻⁶ cm/s | 58.9 ×10⁻⁶ cm/s | 89% | 100%
C[C@@]12CC[C@@](C)(N1)[C@@H](F)[C@@H](Oc1ccc(-c3ccc(-n4cccn4)cc3O)nn1)C2 (single isomer, unassigned) [153-ENT2] | 7.30 to 7.80 | 3 | 7.16 ×10⁻⁶ cm/s | 24.7 ×10⁻⁶ cm/s | 60% | 71%
